Results taken from patent US20020002171A1, “Materials and methods for killing nematodes and nematode eggs” (priority 2000, published 2002).

System: Caenorhabditis elegans
Assay: C. elegans L1 nematicidal dose response in 96-well plates, 5 day visual score (Example 2; same procedure for Example 7, Table 3)
Assay type: in vivo
Design: key to 5 Day Visual Score V1 / 5 Day Visual Score V2 / 5 Day Visual Score V3 / 5 Day Visual Score V4 / 5 Day Visual Score V6 / 5 Day Visual Score V5 / Initial HTS Run Visual Score / Follow-up HTS Run Visual Score: Dead: only stiff L1s (no movement); Dead (L4): worms are dead, but at a later larval stage; majority of worms are L1 (based on size) worms move when plate is tapped; majority of worms are L2 (based on size); majority of worms are L3 (based on size); majority of worms are L4 (based on size); AD: majority of worms are adult; #AD: 5 adult worms or less; B!: sterile (0-25 progeny); B: low broodsize (25-100 progeny); ˜B: moderate broodsize (100-250 progeny); <: reduced broodsize (250-500 progeny); OK: no effect (˜1000+ progeny)
In short: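 Scoring was by eye at 100× on day 5, after incubation at 20° C, of 20 C. elegans L1s per well fed 1% E. coli HB101 in NGM. Compound columns V1–V6 spanned 70 μM to 0.3 μM in 3-fold steps, with 1.4% DMSO in the top well and as control.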

[1] = dose response, dilution V3, day 5
[2] = dose response, dilution V4, day 5
[3] = dose response, dilution V5, day 5
[4] = dose response, dilution V6, day 5
[5] = dose response, dilution V1, day 5
[6] = dose response, dilution V2, day 5
[7] = 0.3 μM, C. elegans L1, scored day 5
[8] = 2.6 μM, C. elegans L1, scored day 5
[9] = 23.3 μM, C. elegans L1, scored day 5
[10] = 70 μM, C. elegans L1, scored day 5
[11] = dose response, dilution V1, 5 day
[12] = dose response, dilution V2, 5 day
[13] = dose response, dilution V4, 5 day
[14] = dose response, dilution V5, 5 day
[15] = dose response, dilution V6, 5 day

SMILES	Follow-up HTS Run % Run [%]	Follow-up HTS Run Visual Score	Follow-up HTS Run mOD [mOD]	Initial HTS Run % Run [%]	Initial HTS Run Visual Score	Initial HTS Run mOD [mOD]	5 Day Visual Score V3 [1]	5 Day Visual Score V4 [2]	5 Day Visual Score V5 [3]	5 Day Visual Score V6 [4]	5 Day Visual Score V1 [5]	5 Day Visual Score V2 [6]	further results
FC(F)(F)c1cccc(N2CCN(c3nc(NCc4ccccc4C(F)(F)F)ns3)CC2)c1 [compound 258]	124	B! (sterile (0-25 progeny))	200	111	L4/AD/B!-Few Eggs	122	˜B (moderate broodsize (100-250 progeny))	˜B (moderate broodsize (100-250 progeny))	OK (no effect (˜1000+ progeny))	OK (no effect (˜1000+ progeny))	–	–	–
CCCCN(Cc1ccccc1)c1nc(N2CCCC(C(=O)N(CC)CC)C2)ns1 (centres unmarked) [compound 239]	132	B (low broodsize (25-100 progeny))	212	134	L4/AD/B!	147	OK (no effect (˜1000+ progeny))	OK (no effect (˜1000+ progeny))	OK (no effect (˜1000+ progeny))	OK (no effect (˜1000+ progeny))	L2	B (low broodsize (25-100 progeny))	–
CCCCCCCCCCCCCCCCCCN(C)c1nc(NCCc2ccc(Oc3ccccc3)cc2)ns1 [compound 270]	113	–	182	149	–	164	–	OK (no effect (˜1000+ progeny))	OK (no effect (˜1000+ progeny))	OK (no effect (˜1000+ progeny))	Dead	–	–
CC(O)CN(CC(C)O)c1nc(NCc2ccc(C(F)(F)F)cc2)ns1 (centres unmarked) [compound 252]	100	L2 - Dead L3	161	100	Dead(L3)	110	–	< (reduced broodsize (250-500 progeny))	< (reduced broodsize (250-500 progeny))	< (reduced broodsize (250-500 progeny))	Dead(L3)	Dead(L3)	–
COCCN(CCOC)c1nc(NCc2ccc(C(F)(F)F)cc2)ns1 [compound 257]	104	L4/AD/B!	168	91	L4/AD/B!	100	OK (no effect (˜1000+ progeny))	OK (no effect (˜1000+ progeny))	OK (no effect (˜1000+ progeny))	OK (no effect (˜1000+ progeny))	L1	˜B (moderate broodsize (100-250 progeny))	–
O=C(Nc1ccc(OC(F)(F)F)cc1)NC1CCC(c2nc(-c3ccccc3)no2)CC1 (centres unmarked) [AKC 107]	–	–	–	–	–	–	–	–	–	–	–	–	5 Day Visual Score V6 [7]: L2/Dead(L; 5 Day Visual Score V4 [8]: Dead(L4); 5 Day Visual Score V2 [9]: Dead(L2/L3); 5 Day Visual Score V1 [10]: Dead
COc1ccc(C2=NOC(c3ccc(-c4ccccc4)cc3)C2C(=O)NCCc2ccccc2F)cc1 (centres unmarked) [AKC 121]	–	–	–	–	–	–	–	–	–	–	–	–	5 Day Visual Score V4 [8]: #AD/˜B; 5 Day Visual Score V2 [9]: L1; 5 Day Visual Score V1 [10]: L1
CN(Cc1ccccc1)c1nc(NC2CCCCCCCCCCC2)ns1 [compound 336]	90	–	145	97	Dead/1AD/B!	107	–	–	–	–	–	–	5 Day Visual Score V1 [11]: Dead; 5 Day Visual Score V2 [12]: Dead; 5 Day Visual Score V4 [13]: OK (no effect (˜1000+ progeny)); 5 Day Visual Score V5 [14]: OK (no effect (˜1000+ progeny)); 5 Day Visual Score V6 [15]: OK (no effect (˜1000+ progeny))
C=CCN(CC=C)c1nc(NCC(c2ccccc2)c2ccccc2)ns1 [compound 272]	110	–	177	108	L3	119	OK (no effect (˜1000+ progeny))	OK (no effect (˜1000+ progeny))	OK (no effect (˜1000+ progeny))	OK (no effect (˜1000+ progeny))	Dead	B (low broodsize (25-100 progeny))	–
CCCCN(Cc1ccccc1)c1nc(NCc2c(F)cccc2F)ns1 [compound 298]	143	–	231	125	L2	137	OK (no effect (˜1000+ progeny))	OK (no effect (˜1000+ progeny))	OK (no effect (˜1000+ progeny))	OK (no effect (˜1000+ progeny))	L4#AD/B	˜B (moderate broodsize (100-250 progeny))	–
CN(Cc1ccccc1)c1nc(NCc2ccccc2)ns1 [compound 328]	121	–	195	120	–	132	–	–	–	–	–	–	5 Day Visual Score V1 [11]: L1; 5 Day Visual Score V2 [12]: L1; 5 Day Visual Score V5 [14]: < (reduced broodsize (250-500 progeny))
CN(CCc1ccccc1)c1nc(NC2CCCCCCCCCCC2)ns1 [compound 335]	86	Dead	139	97	Dead	107	–	–	–	–	–	–	5 Day Visual Score V1 [11]: Dead; 5 Day Visual Score V6 [15]: < (reduced broodsize (250-500 progeny))
CCOc1ccc(C2ON=C(c3ccc(N(C)C)cc3)C2C(=O)NCCc2ccc(F)cc2)cc1 (centres unmarked) [AKC 123]	–	–	–	–	–	–	–	–	–	–	–	–	5 Day Visual Score V6 [7]: #AD/˜B; 5 Day Visual Score V1 [10]: L1
FC(F)(F)c1cccc(N2CCN(c3nc(NCc4ccccc4)ns3)CC2)c1 [compound 266]	124	–	200	110	–	121	–	OK (no effect (˜1000+ progeny))	OK (no effect (˜1000+ progeny))	OK (no effect (˜1000+ progeny))	Dead	–	–
CCCCN(CC)c1nc(NCc2ccc(C(F)(F)F)cc2)ns1 [compound 319]	127	L2	205	121	L2	133	–	–	–	–	–	–	5 Day Visual Score V2 [12]: ˜B (moderate broodsize (100-250 progeny)); 5 Day Visual Score V3 (dose response, dilution V3, 5 day): OK (no effect (˜1000+ progeny)); 5 Day Visual Score V4 [13]: OK (no effect (˜1000+ progeny)); 5 Day Visual Score V5 [14]: OK (no effect (˜1000+ progeny)); 5 Day Visual Score V6 [15]: OK (no effect (˜1000+ progeny))
